Reference: the NIST ThermoML archive (doi:10.1016/j.jct.2015.12.014)

Key:
[1] = molar heat capacity at constant pressure; conditions: 101.33 kPa, Crystal, Small sample (50 mg) DSC
[2] = Crystal; for vapor or sublimation pressure: Calculated from knudsen effusion weight loss
[3] = Molar enthalpy of transition or fusion; conditions: Crystal; DSC

O=C(O)/C=C\c1ccccc1 [cis-cinnamic acid]
Conditions | Normal melting temperature [°C] | molar heat capacity at constant pressure [J/K/mol] | vapor or sublimation pressure [kPa]
[1], 257.15 K | – | 155 | –
[1], 258.15 K | – | 155.9 | –
[1], 259.15 K | – | 156 | –
[1], 260.15 K | – | 156.5 | –
[1], 261.15 K | – | 156.9 | –
[1], 262.15 K | – | 157.5 | –
[1], 263.15 K | – | 158.1 | –
[1], 264.15 K | – | 158.7 | –
[1], 265.15 K | – | 159.1 | –
[1], 266.15 K | – | 159.7 | –
[1], 267.15 K | – | 160.2 | –
[1], 268.15 K | – | 160.8 | –
[1], 269.15 K | – | 161.2 | –
[1], 270.15 K | – | 161.6 | –
[1], 271.15 K | – | 162.2 | –
[1], 272.15 K | – | 163 | –
[1], 273.15 K | – | 163.3 | –
[1], 274.15 K | – | 163.9 | –
[1], 275.15 K | – | 164.3 | –
[1], 276.15 K | – | 165.3 | –
[1], 277.15 K | – | 165.8 | –
[1], 278.15 K | – | 166.2 | –
[1], 279.15 K | – | 166.7 | –
[1], 280.15 K | – | 167.3 | –
[1], 281.15 K | – | 167.9 | –
[1], 282.15 K | – | 168.5 | –
[1], 283.15 K | – | 169.1 | –
[1], 284.15 K | – | 169.5 | –
[1], 285.15 K | – | 170.4 | –
[1], 286.15 K | – | 170.8 | –
[1], 287.15 K | – | 171.4 | –
[1], 288.15 K | – | 171.9 | –
[1], 289.15 K | – | 172.6 | –
[1], 290.15 K | – | 173.2 | –
[1], 291.15 K | – | 173.9 | –
[1], 292.15 K | – | 174.5 | –
[1], 293.15 K | – | 175.1 | –
[1], 294.15 K | – | 175.9 | –
[1], 295.15 K | – | 176.5 | –
[1], 296.15 K | – | 176.9 | –
[1], 297.15 K | – | 177.6 | –
[1], 298.15 K | – | 178.1 | –
[1], 299.15 K | – | 178.7 | –
[1], 300.15 K | – | 179.1 | –
[1], 301.15 K | – | 179.9 | –
[1], 302.15 K | – | 180.6 | –
[1], 303.15 K | – | 181.3 | –
[1], 304.15 K | – | 182.1 | –
[1], 305.15 K | – | 183 | –
[1], 306.15 K | – | 183.7 | –
[1], 307.15 K | – | 184.6 | –
[1], 308.15 K | – | 185.3 | –
[1], 309.15 K | – | 185.9 | –
[1], 310.15 K | – | 186.8 | –
[1], 311.15 K | – | 187.9 | –
[1], 312.15 K | – | 188.6 | –
[1], 313.15 K | – | 189.3 | –
[1], 314.15 K | – | 190.2 | –
[1], 315.15 K | – | 191.3 | –
[1], 316.15 K | – | 192.3 | –
[1], 317.15 K | – | 193.5 | –
[1], 318.15 K | – | 194.5 | –
[1], 319.15 K | – | 195.9 | –
[1], 320.15 K | – | 197.5 | –
[1], 321.15 K | – | 199.1 | –
[1], 322.15 K | – | 201.1 | –
[2], 306.21 K | – | – | 8.16e-05
[2], 308.18 K | – | – | 0.0001123
[2], 310.2 K | – | – | 0.0001346
[2], 312.15 K | – | – | 0.0001819
[2], 314.14 K | – | – | 0.0002297
[2], 316.16 K | – | – | 0.0002837
[2], 318.1 K | – | – | 0.0003808
[2], 320.19 K | – | – | 0.0004592
[2], 322.05 K | – | – | 0.000572
[2], 324.08 K | – | – | 0.0007647
[2], 326.1 K | – | – | 0.0009201
[2], DTA | 67.0 | – | –

Conditions | Molar enthalpy of transition or fusion [kcal/mol]
[3] | 4.02
